Assay results reported in PubChem BioAssay AID2060896 (Molecular Pharmacology Branch, DTP, NCI, 2025).
“And” between values parts separate entries of the source, which are not always exact repeats. Identical values can stand only once.

Test system: 941728-121-R-J1-PDC complex spheroid viability
Assay: Anticancer human tumor 941728-121-R-J1-PDC patient-derived lung adenocarcinoma cell line growth inhibition [RAS]
Settings: for viability, T/C: stronger effect = lower value
Method in brief: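 Agents were tested in combination matrices in half-log decrements from a top concentration at or near clinical Cmax (10 microM if undetermined). Targets were multi-cell spheroids of tumour lines plus HUVEC and MSC stromal cells.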

[1] = curve of first compound, second compound 0.0316 µM
[2] = curve of first compound, second compound 0.1 µM
[3] = curve of first compound, second compound 0.316 µM
[4] = curve of first compound, second compound 1 µM
[5] = curve of first compound, second compound 3.16 µM
[6] = curve of first compound, second compound 10 µM
[7] = second compound 0.0316 µM, first compound 0.0316 µM
[8] = second compound 0.0316 µM, first compound 0.1 µM
[9] = second compound 0.0316 µM, first compound 0.316 µM
[10] = second compound 0.0316 µM, first compound 1 µM
[11] = second compound 0.0316 µM, first compound 3.16 µM
[12] = second compound 0.0316 µM, first compound 10 µM
[13] = second compound 0.1 µM, first compound 0.0316 µM
[14] = second compound 0.1 µM, first compound 0.1 µM
[15] = second compound 0.1 µM, first compound 0.316 µM
[16] = second compound 0.1 µM, first compound 1 µM
[17] = second compound 0.1 µM, first compound 3.16 µM
[18] = second compound 0.1 µM, first compound 10 µM
[19] = second compound 0.316 µM, first compound 0.0316 µM
[20] = second compound 0.316 µM, first compound 0.1 µM
[21] = second compound 0.316 µM, first compound 0.316 µM
[22] = second compound 0.316 µM, first compound 1 µM
[23] = second compound 0.316 µM, first compound 3.16 µM
[24] = second compound 0.316 µM, first compound 10 µM
[25] = second compound 1 µM, first compound 0.0316 µM
[26] = second compound 1 µM, first compound 0.1 µM
[27] = second compound 1 µM, first compound 0.316 µM
[28] = second compound 1 µM, first compound 1 µM
[29] = second compound 1 µM, first compound 3.16 µM
[30] = second compound 1 µM, first compound 10 µM
[31] = second compound 3.16 µM, first compound 0.0316 µM
[32] = second compound 3.16 µM, first compound 0.1 µM
[33] = second compound 3.16 µM, first compound 0.316 µM
[34] = second compound 3.16 µM, first compound 1 µM
[35] = second compound 3.16 µM, first compound 3.16 µM
[36] = second compound 3.16 µM, first compound 10 µM
[37] = second compound 10 µM, first compound 0.0316 µM
[38] = second compound 10 µM, first compound 0.1 µM
[39] = second compound 10 µM, first compound 0.316 µM
[40] = second compound 10 µM, first compound 1 µM
[41] = second compound 10 µM, first compound 3.16 µM
[42] = second compound 10 µM, first compound 10 µM
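Note: spheroids exposed to compounds for 7 days before readout.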
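Throughout, for viability, T/C: 100% = DMSO vehicle control viability.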

## CC(C)NCC(C(=O)N1CCN(c2ncnc3c2C(C)CC3O)CC1)c1ccc(Cl)cc1 (configuration not stated) + C#Cc1c(F)ccc2cc(O)cc(-c3ncc4c(N5CC6CCC(C5)N6)nc(OCC56CCCN5CC(F)C6)nc4c3F)c12
[1]
  IC50: 1040 nM
[2]
  IC50: 972 nM
[3]
  IC50: 422 nM
[4]
  IC50: < 31.6 nM
[5]
  IC50: < 31.6 nM
[6]
  IC50: < 31.6 nM
[7]
  viability, T/C: 102%
[8]
  viability, T/C: 79.8%
[9]
  viability, T/C: 63.7%
[10]
  viability, T/C: 51.8%
[11]
  viability, T/C: 38.7%
[12]
  viability, T/C: 34.8%
[13]
  viability, T/C: 79.9%
[14]
  viability, T/C: 70.9%
[15]
  viability, T/C: 61.6%
[16]
  viability, T/C: 50%
[17]
  viability, T/C: 39.3%
[18]
  viability, T/C: 33.4%
[19]
  viability, T/C: 56.6%
[20]
  viability, T/C: 59.2%
[21]
  viability, T/C: 52%
[22]
  viability, T/C: 42.1%
[23]
  viability, T/C: 35%
[24]
  viability, T/C: 26.9%
[25]
  viability, T/C: 39.3%
[26]
  viability, T/C: 39.4%
[27]
  viability, T/C: 35%
[28]
  viability, T/C: 30.9%
[29]
  viability, T/C: 22.9%
[30]
  viability, T/C: 21.1%
[31]
  viability, T/C: 32%
[32]
  viability, T/C: 30.4%
[33]
  viability, T/C: 28.7%
[34]
  viability, T/C: 24.9%
[35]
  viability, T/C: 24.6%
[36]
  viability, T/C: 17.3%
[37]
  viability, T/C: 25.4%
[38]
  viability, T/C: 23.5%
[39]
  viability, T/C: 22.3%
[40]
  viability, T/C: 21.6%
[41]
  viability, T/C: 17.1%
[42]
  viability, T/C: 11.2%

## CC(=O)OC12COC1CC(O)C1(C)C(=O)C(O)C3=C(C)C(OC(=O)C(O)C(NC(=O)OC(C)(C)C)c4ccccc4)CC(O)(C(OC(=O)c4ccccc4)C21)C3(C)C (configuration not stated) + C#Cc1c(F)ccc2cc(O)cc(-c3ncc4c(N5CC6CCC(C5)N6)nc(OCC56CCCN5CC(F)C6)nc4c3F)c12
[1]
  IC50: < 31.6 nM
[2]
  IC50: < 31.6 nM
[3]
  IC50: < 31.6 nM
[4]
  IC50: < 31.6 nM
[5]
  IC50: < 31.6 nM
[6]
  IC50: < 31.6 nM
[7]
  viability, T/C: 39.9%
[8]
  viability, T/C: 39.7%
[9]
  viability, T/C: 39.7%
[10]
  viability, T/C: 37.6%
[11]
  viability, T/C: 42.7%
[12]
  viability, T/C: 41.7%
[13]
  viability, T/C: 41.8%
[14]
  viability, T/C: 36.1%
[15]
  viability, T/C: 30.3%
[16]
  viability, T/C: 41.6%
[17]
  viability, T/C: 38.2%
[18]
  viability, T/C: 39.1%
[19]
  viability, T/C: 30.5%
[20]
  viability, T/C: 36.8%
[21]
  viability, T/C: 32.6%
[22]
  viability, T/C: 31.2%
[23]
  viability, T/C: 33.3%
[24]
  viability, T/C: 36.7%
[25]
  viability, T/C: 30.6%
[26]
  viability, T/C: 32.3%
[27]
  viability, T/C: 27.8%
[28]
  viability, T/C: 24.6%
[29]
  viability, T/C: 28.1%
[30]
  viability, T/C: 31%
[31]
  viability, T/C: 22.9%
[32]
  viability, T/C: 26.7%
[33]
  viability, T/C: 23.2%
[34]
  viability, T/C: 21.7%
[35]
  viability, T/C: 22.8%
[36]
  viability, T/C: 25.7%
[37]
  viability, T/C: 16.2%
[38]
  viability, T/C: 14.9%
[39]
  viability, T/C: 14.1%
[40]
  viability, T/C: 14%
[41]
  viability, T/C: 15.3%
[42]
  viability, T/C: 16%

## CC(C)NCC(C(=O)N1CCN(c2ncnc3c2C(C)CC3O)CC1)c1ccc(Cl)cc1 (configuration not stated)
Compound 0.0316 µM
  viability, T/C: 93.8% [middle of 4 runs]
Compound 0.1 µM
  viability, T/C: 90.7% [middle of 4 runs]
Compound 0.316 µM
  viability, T/C: 74.2% [middle of 4 runs]
Compound 3.16 µM
  viability, T/C: 54.6% [middle of 4 runs]
Compound 10 µM
  viability, T/C: 42.7% [middle of 4 runs]
Curve of compound
  IC50: 844 nM and 5470 nM and 2640 nM

## CC(C)NCC(C(=O)N1CCN(c2ncnc3c2C(C)CC3O)CC1)c1ccc(Cl)cc1 (configuration not stated) + C=CC(=O)N1CCN(c2nc(OCC3CCCN3C)nc3c(F)c(-c4nc(N)cc(C)c4C(F)(F)F)c(Cl)cc23)C(C)C1
Curve of first compound, second compound 0.00316 µM
  IC50: < 31.6 nM
Curve of first compound, second compound 0.01 µM
  IC50: < 31.6 nM
[1]
  IC50: < 31.6 nM
[2]
  IC50: < 31.6 nM
[3]
  IC50: < 31.6 nM
[4]
  IC50: < 31.6 nM
Second compound 0.00316 µM, first compound 0.0316 µM
  viability, T/C: 19.3%
Second compound 0.00316 µM, first compound 0.1 µM
  viability, T/C: 17.8%
Second compound 0.00316 µM, first compound 0.316 µM
  viability, T/C: 16.5%
Second compound 0.00316 µM, first compound 1 µM
  viability, T/C: 22.4%
Second compound 0.00316 µM, first compound 3.16 µM
  viability, T/C: 12.7%
Second compound 0.00316 µM, first compound 10 µM
  viability, T/C: 8.85%
Second compound 0.01 µM, first compound 0.0316 µM
  viability, T/C: 18%
Second compound 0.01 µM, first compound 0.1 µM
  viability, T/C: 21.5%
Second compound 0.01 µM, first compound 0.316 µM
  viability, T/C: 18.3%
Second compound 0.01 µM, first compound 1 µM
  viability, T/C: 14.3%
Second compound 0.01 µM, first compound 3.16 µM
  viability, T/C: 13.1%
Second compound 0.01 µM, first compound 10 µM
  viability, T/C: 7.71%
[7]
  viability, T/C: 26.6%
[8]
  viability, T/C: 17.3%
[9]
  viability, T/C: 16.8%
[10]
  viability, T/C: 14.7%
[11]
  viability, T/C: 10.8%
[12]
  viability, T/C: 11.1%
[13]
  viability, T/C: 19.6%
[14]
  viability, T/C: 17.1%
[15]
  viability, T/C: 17.9%
[16]
  viability, T/C: 15%
[17]
  viability, T/C: 10.6%
[18]
  viability, T/C: 6.28%
[19]
  viability, T/C: 19.6%
[20]
  viability, T/C: 16.8%
[21]
  viability, T/C: 15.3%
[22]
  viability, T/C: 13.8%
[23]
  viability, T/C: 13.5%
[24]
  viability, T/C: 8.85%
[25]
  viability, T/C: 17.9%
[26]
  viability, T/C: 18.7%
[27]
  viability, T/C: 16.8%
[28]
  viability, T/C: 12%
[29]
  viability, T/C: 12.3%
[30]
  viability, T/C: 8.38%
